Reference: PubChem BioAssay AID330 (DTP/NCI, 2004)
“And” between values parts separate entries of the source, which are not always exact repeats. Identical values can stand only once. Toxic doses and inconclusive results are not listed.

Test system: P388 leukemia ip, CD2F1 mice, survival T/C
Experiment: NCI In Vivo Anticancer Drug Screen. Data for tumor model P388 Leukemia (intraperitoneal) in CD2F1 (CDF1) mice
Details: endpoint: median survival time, higher = longer survival
Outline: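 Mice carrying the transplanted tumor received test compound or vehicle. Survival was recorded in each group, and the value is the treated-group measurement divided by that of the vehicle-treated control group.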

[1] = dose: 60.0 mg/kg/injection, schedule: Q01DX005 (ip), vehicle: Klucel (hydroxypropylcellulose) (HPC)
[2] = dose: 120.0 mg/kg/injection, schedule: Q01DX005 (ip), vehicle: Klucel (hydroxypropylcellulose) (HPC)
[3] = dose: 240.0 mg/kg/injection, schedule: Q01DX005 (ip), vehicle: Klucel (hydroxypropylcellulose) (HPC)
[4] = dose: 50.0 mg/kg/injection, schedule: Q01DX009 (ip), vehicle: Klucel (hydroxypropylcellulose) (HPC)
[5] = dose: 100.0 mg/kg/injection, schedule: Q01DX009 (ip), vehicle: Klucel (hydroxypropylcellulose) (HPC)
[6] = dose: 60.0 mg/kg/injection, schedule: Q01DX005 (ip), vehicle: saline with Tween-80
[7] = dose: 120.0 mg/kg/injection, schedule: Q01DX005 (ip), vehicle: saline with Tween-80
[8] = dose: 240.0 mg/kg/injection, schedule: Q01DX005 (ip), vehicle: saline with Tween-80
[9] = dose: 100.0 mg/kg/injection, schedule: Q04DX003 (ip), vehicle: saline with Tween-80
[10] = dose: 200.0 mg/kg/injection, schedule: Q04DX003 (ip), vehicle: saline with Tween-80
[11] = dose: 400.0 mg/kg/injection, schedule: Q04DX003 (ip), vehicle: saline with Tween-80
[12] = dose: 12.5 mg/kg/injection, schedule: Q01DX005 (ip), vehicle: saline with Tween-80
[13] = dose: 25.0 mg/kg/injection, schedule: Q01DX005 (ip), vehicle: saline with Tween-80
[14] = dose: 50.0 mg/kg/injection, schedule: Q01DX005 (ip), vehicle: saline with Tween-80
[15] = dose: 50.0 mg/kg/injection, schedule: Q01DX009 (ip), vehicle: saline with Tween-80
[16] = dose: 100.0 mg/kg/injection, schedule: Q01DX009 (ip), vehicle: saline with Tween-80
[17] = dose: 200.0 mg/kg/injection, schedule: Q01DX009 (ip), vehicle: saline with Tween-80
[18] = dose: 25.0 mg/kg/injection, schedule: Q01DX009 (ip), vehicle: saline with Tween-80
[19] = dose: 25.0 mg/kg/injection, schedule: Q04DX002 (ip), vehicle: saline
[20] = dose: 50.0 mg/kg/injection, schedule: Q04DX002 (ip), vehicle: saline
[21] = dose: 200.0 mg/kg/injection, schedule: Q04DX002 (ip), vehicle: saline
[22] = dose: 1.56 mg/kg/injection, schedule: Q01DX009 (ip), vehicle: water
[23] = dose: 6.25 mg/kg/injection, schedule: Q01DX009 (ip), vehicle: water
[24] = dose: 12.5 mg/kg/injection, schedule: Q01DX009 (ip), vehicle: water
[25] = dose: 25.0 mg/kg/injection, schedule: Q01DX009 (ip), vehicle: water

In the case of `O=P1(C(Cl)(Cl)Cl)NNP(=O)(C(Cl)(Cl)Cl)NN1` (stereo not given), the T/C [1] is reported as 104 % of control, the T/C [2] is reported as 101 % of control and the T/C [3] is reported as 107 % of control.

In the case of `COc1ccc(S(=O)(=O)N2OC2c2ccccc2)cc1` (stereo not given), the T/C [4] is reported as 100 % of control and the T/C [5] is reported as 100 % of control.

`C=CCCCN1C(=O)CCCC1=O` was tested, and the T/C [6] was 100 % of control, the T/C [7] was 101 % of control and the T/C [8] was 101 % of control.

In the case of `O=S(=O)(c1ccc(Cl)cc1)N(Cl)Cl`, the T/C (dose: 6.25 mg/kg/injection, schedule: Q01DX009 (ip), vehicle: Klucel (hydroxypropylcellulose) (HPC)) is reported as 107 % of control, the T/C (dose: 12.5 mg/kg/injection, schedule: Q01DX009 (ip), vehicle: Klucel (hydroxypropylcellulose) (HPC)) is reported as 100 % of control and the T/C (dose: 25.0 mg/kg/injection, schedule: Q01DX009 (ip), vehicle: Klucel (hydroxypropylcellulose) (HPC)) is reported as 101 % of control and 116 % of control. For the same compound, the T/C [4] was 105 % of control.

`C[C](C)(C)[Sn]([Cl])([c]1ccccc1)[C](C)(C)C` was tested, and the T/C [9] was 94 % of control, the T/C [10] was 104 % of control and the T/C [11] was 95 % of control.

For `CC1CC(C)C(C)C(C)(CN(C)C)C1` (stereo not given), the T/C [12] was 102 % of control, the T/C [13] was 98 % of control and the T/C [14] was 100 % of control and 96 % of control.

`O=C(N/N=C\c1ccc(Cl)cc1)c1ccccc1` was tested, and the T/C [15] was 95 % of control, the T/C [16] was 90 % of control and the T/C [17] was 104 % of control.

In the case of `O=C(O)c1nccc2ccccc12`, the T/C (dose: 12.5 mg/kg/injection, schedule: Q01DX009 (ip), vehicle: saline with Tween-80) is reported as 103 % of control, the T/C [18] is reported as 103 % of control and the T/C [15] is reported as 105 % of control. The T/C [16] was 106 % of control.

`CN=C(N)N/N=C/c1ccc(-c2ccccc2)cc1` was tested, and the T/C [19] was 105 % of control and the T/C [20] was 111 % of control.

`CC(C)n1c(=S)[nH]c2ccccc2c1=O` was tested, and the T/C [16] was 90 % of control, the T/C [9] was 95 % of control and the T/C [17] was 90 % of control. The T/C [10] was 95 % of control, the T/C (dose: 400.0 mg/kg/injection, schedule: Q01DX009 (ip), vehicle: saline with Tween-80) was 95 % of control and the T/C [11] was 91 % of control.

With `COc1cccc(C2(O)CCCc3c(C)ccnc32)c1` (stereo not given) the T/C [1] was 103 % of control, the T/C [2] was 112 % of control and the T/C [3] was 115 % of control.

`COC1=CC(=O)C(Cc2ccc3c(c2)OCO3)=CC1=O` was tested, and the T/C (dose: 2.5 mg/kg/injection, schedule: Q01DX009 (ip), vehicle: saline with Tween-80) was 101 % of control, the T/C (dose: 5.0 mg/kg/injection, schedule: Q01DX009 (ip), vehicle: saline with Tween-80) was 99 % of control and the T/C (dose: 10.0 mg/kg/injection, schedule: Q01DX009 (ip), vehicle: saline with Tween-80) was 101 % of control.

In the case of `CCc1ccc(C2(C)C(=O)c3ccccc3C2=O)cc1`, the T/C (dose: 100.0 mg/kg/injection, schedule: Q04DX002 (ip), vehicle: saline) is reported as 101 % of control, the T/C [21] is reported as 100 % of control and the T/C (dose: 400.0 mg/kg/injection, schedule: Q04DX002 (ip), vehicle: saline) is reported as 104 % of control.

With `CCCOC1CC(C)(O)Cc2cc3c(c(O)c21)C(=O)c1c(O)cc2c(c1C3=O)OC1OC2(C)C(O)C(N(C)C)C1O` (stereo not given) the T/C (dose: 1.56 mg/kg/injection, schedule: Q01DX009 (ip), vehicle: other) was 124 % of control and the T/C (dose: 3.13 mg/kg/injection, schedule: Q01DX009 (ip), vehicle: other) was 150 % of control.

In the case of `O=C(O)C12C3CCC(O3)C1(C(=O)O)C1CCC2O1` (stereo not given), the T/C [6] is reported as 94 % of control, the T/C [7] is reported as 90 % of control and the T/C [8] is reported as 88 % of control.

With `OCCOCCSCCOCCO` the T/C (dose: 50.0 mg/kg/injection, schedule: Q01DX005 (ip), vehicle: saline) was 100 % of control, the T/C (dose: 100.0 mg/kg/injection, schedule: Q01DX005 (ip), vehicle: saline) was 100 % of control and the T/C (dose: 200.0 mg/kg/injection, schedule: Q01DX005 (ip), vehicle: saline) was 102 % of control.

For `O=c1[nH]c(=S)[nH]nc1/C=C/c1cccc(I)c1`, the T/C (dose: 12.5 mg/kg/injection, schedule: Q04DX002 (ip), vehicle: saline) was 100 % of control, the T/C [19] was 100 % of control and the T/C [20] was 100 % of control. The T/C [21] was 106 % of control.

`COc1ccc(C2=NOP(c3ccccc3)(c3ccccc3)(c3ccccc3)C2)cc1` was tested, and the T/C [22] was 102 % of control, the T/C (dose: 3.13 mg/kg/injection, schedule: Q01DX009 (ip), vehicle: water) was 106 % of control and the T/C [23] was 90 % of control. The T/C [24] was 107 % of control, the T/C (dose: 25.0 mg/kg/injection, schedule: Q01DX009 (ip), vehicle: other) was 99 % of control and the T/C [25] was 104 % of control. The T/C [4] was 105 % of control, the T/C [5] was 101 % of control and the T/C (dose: 200.0 mg/kg/injection, schedule: Q01DX009 (ip), vehicle: Klucel (hydroxypropylcellulose) (HPC)) was 101 % of control.

With `CN1CCCC2C(c3ccccc3)C(C3=NCCCC3)C(c3ccccc3)CC21` (stereo not given) the T/C [18] was 100 % of control, the T/C (dose: 25.0 mg/kg/injection, schedule: Q04DX003 (ip), vehicle: saline with Tween-80) was 113 % of control and the T/C [15] was 100 % of control. For the same compound, the T/C (dose: 50.0 mg/kg/injection, schedule: Q04DX003 (ip), vehicle: saline with Tween-80) was 100 % of control, the T/C [16] was 104 % of control and the T/C [9] was 100 % of control.

In the case of `COc1cc(CC2COCC2Cc2ccc3c(c2)OCO3)cc(OC)c1OC` (stereo not given), the T/C (dose: 1.25 mg/kg/injection, schedule: Q04DX002 (ip), vehicle: acetone) is reported as 101 % of control and 103 % of control, the T/C (dose: 2.5 mg/kg/injection, schedule: Q04DX002 (ip), vehicle: acetone) is reported as 101 % of control and 96 % of control and 104 % of control and the T/C (dose: 5.0 mg/kg/injection, schedule: Q04DX002 (ip), vehicle: acetone) is reported as 93 % of control and 96 % of control and 103 % of control.

For `COC(=O)Nc1nc2ccc(C(=O)OC(C)C)cc2[nH]1`, the T/C [9] was 111 % of control and 116 % of control, the T/C [10] was 118 % of control and the T/C (dose: 800.0 mg/kg/injection, schedule: Q04DX003 (ip), vehicle: saline with Tween-80) was 155 % of control.

`O=c1cc[nH]c2ccc3ccccc3c12` was tested, and the T/C (dose: 100.0 mg/kg/injection, schedule: Q01DX001 (ip), vehicle: Klucel (hydroxypropylcellulose) (HPC)) was 97 % of control and the T/C (dose: 200.0 mg/kg/injection, schedule: Q01DX001 (ip), vehicle: Klucel (hydroxypropylcellulose) (HPC)) was 96 % of control.

In the case of `COC(=O)C1C(=O)C(NC(=O)CCCCl)C(c2ccccc2)C(C(=O)OC)C1=O` (stereo not given), the T/C [12] is reported as 103 % of control, the T/C [13] is reported as 106 % of control and the T/C [14] is reported as 99 % of control. The T/C [6] was 101 % of control, the T/C (dose: 100.0 mg/kg/injection, schedule: Q01DX005 (ip), vehicle: saline with Tween-80) was 102 % of control and the T/C [7] was 94 % of control. For the same compound, the T/C (dose: 200.0 mg/kg/injection, schedule: Q01DX005 (ip), vehicle: saline with Tween-80) was 103 % of control and the T/C [8] was 97 % of control.

In the case of `COC(=O)C1=NNc2ccccc2C(OC(C)=O)C1C` (stereo not given), the T/C (dose: 100.0 mg/kg/injection, schedule: Q01DX001 (ip), vehicle: saline with Tween-80) is reported as 90 % of control, the T/C (dose: 200.0 mg/kg/injection, schedule: Q01DX001 (ip), vehicle: saline with Tween-80) is reported as 96 % of control and the T/C (dose: 400.0 mg/kg/injection, schedule: Q01DX001 (ip), vehicle: saline with Tween-80) is reported as 97 % of control.

For `O=NNc1nc2c(Cl)cccc2s1`, the T/C [22] was 102 % of control, the T/C (dose: 3.12 mg/kg/injection, schedule: Q01DX009 (ip), vehicle: water) was 101 % of control and the T/C (dose: 3.15 mg/kg/injection, schedule: Q01DX009 (ip), vehicle: water) was 102 % of control. For the same compound, the T/C [23] was 99 % of control and 100 % of control, the T/C [24] was 99 % of control and 114 % of control and the T/C [25] was 100 % of control and 111 % of control. The T/C (dose: 50.0 mg/kg/injection, schedule: Q01DX009 (ip), vehicle: water) was 106 % of control.
